Measured values as given in paper PMC8179358, “An explicitly designed paratope of amyloid-β prevents neuronal apoptosis in vitro and hippocampal damage in rat brain” (Chemical Science, 2020).
*1 amine or outer side, *2 acyl side, *3 side chain or, on linkers, in order; H or OH if unused. Where a SMILES comes first, the peptide text is derived from it. Bridges are numbered along the chain shown (N, C = ends). Roman numbers before positions name the chains, in order. [ ]: non-standard residue; d: D form. X1 = O=C(CCCCC(=O)[*:2])NCCCOCCOCCOCCCNC(=O)CCC(=O)[*:1]; NMeF = CN[C@@H](Cc1ccccc1)C(=O)O; NMeL = CN[C@@H](CC(C)C)C(=O)O; NMeV = CN[C@H](C(=O)O)C(C)C

Assays:
Sprague-Dawley rats = assay: Acute and sub-chronic toxicity, mortality, behaviour and body weight; format: in vivo
Method: 24 male Sprague Dawley rats were randomly divided into three groups: control, SP1A, and SP1B. Each group contains 8 animals and administration of SP1was performed for 42 days through a tail vein by the following schedule: Control: Without any treatment.
Rats were sacrificed after 42 days of injection schedule and blood was collected for hematological and biochemical estimations. For the histopathological study, the liver and kidney were also isolated very carefully and checked for cytoarchitectural changes if any.
The body weights and volumes of SP1 to be administered were recorded for each animal. Prior to injection, the tail of the animal was warmed by using warm water circulating pad placed under the cage for 5-10 minutes to dilate the veins. A 25-gauge needle was inserted into the vein towards the direction of the head. The needle and syringe were kept parallel to the tail. […]
µg/kg and 500 µg/kg) was injected into the tail slowly. The needle was removed very carefully and gentle compression applied until bleeding was stopped. Animals were returned to their home cage. […]

[1] = Carboxyfluorescein dye leakage from LUVs, Aβ40; format: biochemical
Method: Smaller Aβ oligomers or protofibrils are more toxic than mature fibrils in AD progression due to their ability to disrupt membranes via pore formation.[37,38] […] To evaluate this, we performed a membrane leakage assay on carboxyfluorescein-loaded large unilamellar vesicles (LUVs).[38] The time required for Aβ40 oligomer and mature fibril formation is 12 h and 72 h, respectively (inferred from ThT assay, black curve, Fig. 2a), which directed us to set up the LUV leakage assay. […] The fluorescence intensity of complete dye release from LUVs by Triton X-100 served as a positive control (100% leakage), and untreated dye-loaded LUVs assisted as a negative control. […]
e. Time-resolved photoluminescence (TRPL) […]
μM. Then, 600 μL of peptide sample was placed in a 1 mL fluorescence cuvette and measure the excited state lifetime on Eddinburg FSP920 Instrument. f. […]
Prior to the analysis, samples were filtered through 0.45 µm PVDF membrane. […] For each sample, the analyses were recorded three times with 11 sub-runs using the multimodal mode. The Z-average diameter was calculated from the correlation function using Malvern technology software. g. […]
h. Carboxyfluorescein dye loaded Large Unilamellar Vesicles (LUVs) Leakage Study For leakage study, peptide and lipids were taken in 1:20 molar ratios, and the dye release was monitored by fluorescence emission. […]

Row | Molecule | mortality and behavioral patterns (Sprague-Dawley rats; 100 and 500 μg kg−1, tail vein, 42 days) | body weight (Sprague-Dawley rats; 100 and 500 μg kg−1, days 7, 21, and 42, vs control) | dye leakage from LUVs ([1]; Aβ40 oligomers (12 h aged), until 100 min, untreated LUVs ∼9%, Triton X-100 = 100%) [%] | dye leakage from LUVs ([1]; mature Aβ40 fibrils (72 h), 100 min, peptide:lipid 1:20) [%]
1 | CC(C)C[C@H](NC(=O)CNC(=O)CCC(=O)NCCCOCCOCCOCCCNC(=O)CCCCC(=O)NCC(=O)N(C)[C@@H](CC(C)C)C(=O)N[C@H](C(=O)N(C)[C@@H](Cc1ccccc1)C(=O)N[C@@H](Cc1ccccc1)C(=O)N[C@@H](C)C(N)=O)C(C)C)C(=O)N(C)[C@H](C(=O)N[C@@H](Cc1ccccc1)C(=O)N(C)[C@@H](Cc1ccccc1)C(=O)N[C@@H](C)C(N)=O)C(C)C [SP1] (I: GL[NMeV]F[NMeF]A-NH2 / II: G[NMeL]V[NMeF]FA-NH2; linker I:N-II:N via X1) | causes neither mortality nor abnormal behavioral patterns in rats | did not observe any significant changes in the rats' body weight |  | 
2 | Aβ40: commercially available Aβ40 peptide |  |  | ~40 | ~15
